For 19 compounds, Kd, IC50 and aqueous solubility results are on record in paper PMC11505911, “Design and Synthesis of Small Molecule Probes of MDA-9/Syntenin” (Biomolecules, 2024).

Data set [1] deals with T1, MDA-9/Syntenin (Homo sapiens, UniProt O00560).
T1 construct: made in house
T1 sequence (O00560 1-298): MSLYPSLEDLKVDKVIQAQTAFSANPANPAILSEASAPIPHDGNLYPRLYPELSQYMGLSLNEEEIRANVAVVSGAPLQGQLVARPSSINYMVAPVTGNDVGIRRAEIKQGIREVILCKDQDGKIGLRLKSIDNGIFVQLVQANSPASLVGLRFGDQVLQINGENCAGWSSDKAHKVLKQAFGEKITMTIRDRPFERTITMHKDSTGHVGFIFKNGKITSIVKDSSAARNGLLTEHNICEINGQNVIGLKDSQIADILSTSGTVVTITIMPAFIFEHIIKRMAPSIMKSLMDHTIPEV
The conditions noted are these: cited from earlier work.

The target of data set [2] is T1, MDA-9/Syntenin. On the set-up: method as in printed. The conditions noted are these: pre-PDZ1i molecules studied en route to the discovery of PDZ1i; ref not given; cited from earlier work.
For data set [3], the target named is T1, MDA-9/Syntenin. As to the kind of experiment: Fluorescence polarization titration of ligands into MDA-9/Syntenin. In kind it is binding. The conditions noted are these: 20 mM Tris-HCl, 100 mM NaCl, 0.01% PEG800, 0.05% Tween20, pH 7.4; single-site fit; minimum of two titrations. The method, then: Spectrofluorimetric titrations were performed on a Horiba QM400 spectrometer (HORIBA Scientific, Piscataway, NJ, USA). Excitation and emission wavelengths of 280 nm and 340 nm (600 nm for the reference emission wavelength) were used, with 5 nm excitation and 12 nm emission band widths, as described earlier. Experiments were performed in ratiometric mode, with excitation and emission polarizers set to 0,0 angles at room temperature. The titration buffer was 20 mM Tris-HCl buffer, pH 7.4. The stock concentrations of protein and ligands were 40 and 300–1000 μM, respectively. Whereas the protein was prepared in the titration buffer, the ligands were prepared in DMSO. The ligands (either URD001, NGI03, or NVS125) were titrated into the protein solution in aliquots, and saturable changes in fluorescence polarization were used to calculate the affinity. […] The emission intensities were corrected for dilution effects (<10% overall). The observed change in fluorescence polarization relative to initial signal (F0) was fitted using a standard single-site binding model to obtain the dissociation constant (KD) and the maximal change in fluorescence polarization (ΔF) at saturation.
We then explored fluorescence polarization (λEX = 280 nm, λEM = 340 nm; λREF = 600 nm) in 20 mM Tris-HCl containing 100 mM NaCl, 0.01% PEG800, and 0.05% Tween20, pH 7.4. Polarization relies on the change in molecular diffusion of the protein in the presence of a ligand as a probe of interaction. This technique worked well for PDZ1i, which presented a classic hyperbolic binding profile. […] For NGI03 and URD001, KDs of 1.1 and 3.0 μM, respectively, were measured. […] This implies that no reliable fit of the data could be obtained. Yet, based on the profile, the KD is likely to be more than 200 μM.
(In general: In fluorescence polarisation assays a small probe gives low polarisation when free and higher when bound to something large.)

On the set-up of data set [4]: method as in printed. The conditions noted are these: stated in introduction; ref not given; cited from earlier work.
The nature of data set [5]: Aqueous solubility (qualitative). In kind it is physicochemical. The following applies: authors' observation.

Values joined by “and” are separate entries in the source; they are usually repeats but may differ in a detail not shown here. Equal entries are not always repeated. Where two headings read alike, the source gives them in different places.

Usually Kd stands for the concentration at which binding is half-saturated. As for “Neurexin hexapeptide: hexapeptide epitope from neurexin binding the PDZ2 domain (TNEYYV)”, the Kd with MDA-9/Syntenin [1] (binding domain PDZ2) was 100 µM.
Broadly, the IC50 is the midpoint of a concentration-inhibition curve. On to `Cc1cc(NC(=O)OC(C)(C)C)c(C)cc1CCCC(c1nnc(-c2ccccc2)o1)c1nnc(-c2ccccc2)o1` [CMPD10], for which, on MDA-9/Syntenin [2], the IC50 was 151 µM.
As for `Cc1cc(=O)n2nc(COc3ccccc3)nc2[nH]1` [30A9], the IC50 at MDA-9/Syntenin [2] was 197 µM.
For `Cc1cc(=O)n2nc(C(=O)Nc3cc(Cl)c(N)c(Cl)c3)nc2[nH]1` [112G4], the IC50 at MDA-9/Syntenin [2] was 34.3 µM.
`Cc1cc(=O)n2nc(C(=O)Nc3ccc(O)c(F)c3)nc2[nH]1` [112G2]: the IC50 at MDA-9/Syntenin [2] is 147 µM.
In the case of “Ephrin hexapeptide: hexapeptide epitope from ephrin B binding the PDZ2 domain (NIYYKV; Paralogue and species inferred; terminal caps unknown)”, the Kd with MDA-9/Syntenin [1] (binding domain PDZ2) is 790 µM.
As for `Cc1cc(NC(=O)c2nc3[nH]c4c(c(=O)n3n2)CCC4)c(C)cc1NC(=O)CCc1nnc(-c2ccccc2)o1` [PDZ1i], the Kd is 78 µM and ~78 µM at MDA-9/Syntenin [3]; 60 to 70 µM at MDA-9/Syntenin [1] (binding domain PDZ1). For the same compound, the aqueous solubility entry in data set [4] is recorded as “poor aqueous solubility”.
Regarding `Cc1c(C)c(NC(=O)c2nc3[nH]c4c(c(=O)n3n2)CCC4)c(C)c(C)c1N` [113B8], the IC50 at MDA-9/Syntenin [2] is 151 µM.
For `Cc1cc(=O)n2nc(C(=O)Nc3ccc(N)cc3)nc2[nH]1` [112E7], the IC50 at MDA-9/Syntenin [2] is 944 µM.
On MDA-9/Syntenin [3], `Cc1cc(NC(=O)c2nc3[nH]c4c(c(=O)n3n2)CCC4)c(C)cc1CCCC(c1nnc(-c2ccccc2)o1)c1nnc(-c2ccccc2)o1` [URD001, N-(4-(4,4-bis(5-phenyl-1,3,4-oxadiazol-2-yl)butyl)-2,5-dimethylphenyl)-8-oxo-5,6,7,8-tetrahydro-4H-cyclopenta[d][1,2,4]triazolo [1,5-a]pyrimidine-2-carboxamide] displayed a Kd of 3 µM. In data set [5], the aqueous solubility entry is recorded as “aqueous solubility issues”.
On to “IVMT-Rx-3: polyethylene glycol conjugation from truncated PDZ1i with a PDZ2-binding hexapeptide (TNEYYF)”, for which the Kd with MDA-9/Syntenin [1] (binding domain PDZ1, PDZ2) is 63 µM.
In the case of `Cc1cc(=O)n2nc(C(=O)Nc3ccc(O)cc3)nc2[nH]1` [112D11], at MDA-9/Syntenin [2], the IC50 was 245 µM.
For `Nc1ccc(NC(=O)c2nc3[nH]c4c(c(=O)n3n2)CCC4)cc1` [112G11], at MDA-9/Syntenin [2], the IC50 is 263 µM.
Turning to `O=C(Nc1ccc(O)c(Cl)c1)c1nc2[nH]c3c(c(=O)n2n1)CCC3` [112G3], the IC50 at MDA-9/Syntenin [2] is 119 µM.
For `O=C(Nc1ccc(O)c(F)c1)c1nc2[nH]c3c(c(=O)n2n1)CCC3` [112F12], the IC50 on MDA-9/Syntenin [2] was 166 µM.
As for `Cc1cc(NC(=O)c2nc3[nH]c4c(c(=O)n3n2)CCC4)c(C)cc1NC(=O)CC(c1nnc(-c2ccccc2)o1)c1nnc(-c2ccccc2)o1` [NGI03, N-(4-(3,3-bis(5-phenyl-1,3,4-oxadiazol-2-yl)propanamido)-2,5-dimethylphenyl)-8-oxo-5,6,7,8-tetrahydro-4H-cyclopenta[d][1,2,4]triazolo[1,5-a]pyrimidine-2-carboxamide], on MDA-9/Syntenin [3], the Kd came out at 1.1 µM. Further, in data set [5], the aqueous solubility result is reported as “aqueous solubility issues”.
Turning to `Cc1cc(=O)n2nc(C(=O)Nc3cc(Cl)c(O)c(Cl)c3)nc2[nH]1` [112G1], the IC50 at MDA-9/Syntenin [2] was 57.3 µM.
As for `Cc1ccc(-c2nnc(CCC(=O)Cc3cc(C)c(C(=O)O)cc3C)o2)cc1` [NVS125], the Kd on MDA-9/Syntenin [3] was over 200 µM. Further, in data set [5], the aqueous solubility result was “good aqueous solubility”.
With `O=C(Nc1ccc(O)cc1)c1nc2[nH]c3c(c(=O)n2n1)CCC3` [112E12], on MDA-9/Syntenin [2], the IC50 was 1610 µM.
